Assay results taken from patent US20150344540A1, “NOVEL GLP-1 RECEPTOR AGONISTS WITH CHOLESTEROL EFFLUX ACTIVITY” (NOVO NORDISK A/S, priority 2012, published 2015).
pEC50: −log10 of the molar value.

Columns and labels:
[1] = Physical stability assay, dynamic light scattering; format: physicochemical
Description: Physical stability can be assessed by dynamic and static light scattering. In dynamic light scattering, microsecond fluctuations in scattered laser light incident on a aqueous sample is detected and transformed into diffusion coefficients (Df) of the individual species via the so-called autocorrelation function. For convenience, the diffusion coefficients are typically reported in hydrodynamic radii (Rh) assuming the sample to consist of spherical species. Furthermore, from the radii, an empirical estimate of the molecular weight is obtained. Dynamic light scattering is extremely sensitive and can resolve very small amounts of aggregated species that are undesirable in pharmaceutical formulations. The average, static intensity recorded by the detector also serves as an overall measure of the physical stability of the sample as development of larger species increase the scattered intensity drastically. In order to measure the physical stability of peptides, DLS was applied to aqueous solutions of peptides. Measurements were performed on a Wyatt (Santa Barbara, Calif.) DynaPro DLS plate reader at 25° C., and samples were kept at 37° C. between measurements. Samples were measured for up to two weeks. Measurements were performed in […] triplicate in Corning 3540 384-well microtiter plates (Corning, N.Y.) sealed with transparent plastic foil (Thermo Fischer Scientific, Waltham, Mass.) with twenty 10-second acquisitions per measurement. Autocorrelation curves were fitted with a regularization fit in Dynamics 7.1.7.16 and the resulting diffusion coefficients were transformed into hydrodynamic radii and molecular mass assuming a spherical shape (Table 2). Normalized intensities are reported as is.
Judging from the autocorrelation functions and the normalized static intensity, only minute amounts of aggregate were present at any time independent of sample concentration.

human GLP-1 receptor = human GLP-1 receptor (Homo sapiens, UniProt P43220); test: Functional GLP-1 receptor assay, in vitro potency (CRE luciferase; whole cells); format: cell-based; details: GLP1R CRE luc 1% HSA EC50 Mean Value, BHK cells expressing human GLP-1 receptor, 1% HSA
Sequence of human GLP-1 receptor (P43220 24-463): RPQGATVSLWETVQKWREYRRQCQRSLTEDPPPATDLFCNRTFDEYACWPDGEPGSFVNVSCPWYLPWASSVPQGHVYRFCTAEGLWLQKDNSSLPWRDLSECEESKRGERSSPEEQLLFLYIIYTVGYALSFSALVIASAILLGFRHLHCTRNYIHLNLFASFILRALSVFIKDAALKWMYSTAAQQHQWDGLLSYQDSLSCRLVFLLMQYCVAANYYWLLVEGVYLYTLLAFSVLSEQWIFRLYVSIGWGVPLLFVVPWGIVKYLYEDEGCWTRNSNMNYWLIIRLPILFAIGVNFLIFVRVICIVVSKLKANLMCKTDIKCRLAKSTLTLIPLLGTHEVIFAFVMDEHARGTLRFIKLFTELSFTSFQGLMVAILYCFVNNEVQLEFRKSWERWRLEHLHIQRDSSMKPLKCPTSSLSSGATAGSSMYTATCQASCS

[2] = Pharmacokinetics in normal mice after i.v. and s.c. administration; format: in vivo, female C57B1/6J mice
pH solubility assay = format: physicochemical; parameters: unit not given here; details: two days at 25° C.
Experimental: One approach is to make a pH gradient from a buffer mix consisting of two buffers (e.g. citrate 100 mM/phosphate 200 mM), spike with a concentrated sample stock, and then leave the samples for 2 days at ambient temperature. […] Samples were incubated for two days at 25° C., centrifuged at 4700 g, and the concentration measured in the supernatant on a Nanodrop UV spectrophotometer (Thermo Fischer Scientific, Waltham, Mass.) using a theoretical extinction coefficient of 6,990 cm^−1M^−1.

[3] = test system: Mouse monocyte/macrophage cell line, RAW 264.7; test: Cholesterol efflux assay (3H-cholesterol, macrophage cell line); format: cell-based; details: RAW 264.7, 4 hrs incubation, 0.1% human serum albumin, ABCA1-mediated efflux
[4] = Pharmacokinetics in mini-pigs after i.v. administration; details: female, Göttingen, minipig, plasma, iv, 5 nmol/kg
In short: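 Female Göttingen mini-pigs (15-20 kg, N=3) received 5 nmol/kg i.v. via central venous catheter. Plasma levels of N-terminally intact peptide measured by LOCI immunoassay with N-terminal and mid-/C-terminal antibodies; non-compartmental analysis of individual profiles.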

[5] = female, C57B1/6J, mouse, plasma, sc

Inorm avg. ([1]; 0.9 mg/mL, 37° C., t 0 days): 1.15E+06 kcts
Rh avg. ([1]; 0.9 mg/mL, 37° C., t 0 days): 2.32 nm
Inorm avg. ([1]; 0.9 mg/mL, 37° C., t 1 days): 1.48E+06 kcts
Rh avg. ([1]; 0.9 mg/mL, 37° C., t 1 days): 2.31 nm
Inorm avg. ([1]; 0.9 mg/mL, 37° C., t 4 days): 3.76E+06 kcts
Rh avg. ([1]; 0.9 mg/mL, 37° C., t 4 days): 1.94 nm
Inorm avg. ([1]; 0.9 mg/mL, 37° C., t 8 days): 1.27E+06 kcts
Rh avg. ([1]; 0.9 mg/mL, 37° C., t 8 days): 2.26 nm
Inorm avg. ([1]; 0.9 mg/mL, 37° C., t 13 days): 2.25E+06 kcts
Rh avg. ([1]; 0.9 mg/mL, 37° C., t 13 days): 2.44 nm
oligomer size (molecular weight consistent with number of monomers) ([1]; 20 mM phosphate pH 7.5 buffer, 0.9 mg/mL or 45.5 mg/mL): approximately 4 monomers
Inorm avg. ([1]; 45.5 mg/mL, 37° C., t 0 days): 8.33E+06 kcts
Rh avg. ([1]; 45.5 mg/mL, 37° C., t 0 days): 2.13 nm
Inorm avg. ([1]; 45.5 mg/mL, 37° C., t 1 days): 9.29E+06 kcts
Rh avg. ([1]; 45.5 mg/mL, 37° C., t 1 days): 2.27 nm
Inorm avg. ([1]; 45.5 mg/mL, 37° C., t 4 days): 1.04E+07 kcts
Rh avg. ([1]; 45.5 mg/mL, 37° C., t 4 days): 2.27 nm
Inorm avg. ([1]; 45.5 mg/mL, 37° C., t 6 days): 6.55E+06 kcts
Rh avg. ([1]; 45.5 mg/mL, 37° C., t 6 days): 2.35 nm
Inorm avg. ([1]; 45.5 mg/mL, 37° C., t 14 days): 7.18E+06 kcts
Rh avg. ([1]; 45.5 mg/mL, 37° C., t 14 days): 2.28 nm
pEC50 (human GLP-1 receptor): 9.95
half-life ([2]; female, C57B1/6J, mouse, plasma, iv): 6.7 h
Vd ([2]; female, C57B1/6J, mouse, plasma, iv, read-out: Volume of distribution): 0.0456 L/kg
Tmax [2, 5]: 4 h
half-life [2, 5]: 11.5 h
clearance ([2]; mice, i.v., Compound 1 dose 99 nmol/kg, Compound 5 dose 135 nmol/kg): 4.69 mL/h/kg
Volume of distribution ([2]; mice, s.c., Compound 1 dose 323 nmol/kg, Compound 5 dose 62 nmol/kg): 0.1592 L/kg
Conc. supernatant (pH solubility assay; pH meas. 4.15, citrate 100 mM/phosphate 200 mM): 0.009
Conc. supernatant (pH solubility assay; pH meas. 4.50, citrate 100 mM/phosphate 200 mM): 0.002
Conc. supernatant (pH solubility assay; pH meas. 4.95, citrate 100 mM/phosphate 200 mM): 0.005
Conc. supernatant (pH solubility assay; pH meas. 5.29, citrate 100 mM/phosphate 200 mM): 0.021
Conc. supernatant (pH solubility assay; pH meas. 5.75, citrate 100 mM/phosphate 200 mM): 0.270
Conc. supernatant (pH solubility assay; pH meas. 6.10, citrate 100 mM/phosphate 200 mM): 0.228
Conc. supernatant (pH solubility assay; pH meas. 6.42, citrate 100 mM/phosphate 200 mM): 0.234
Conc. supernatant (pH solubility assay; pH meas. 6.76, citrate 100 mM/phosphate 200 mM): 0.249
Conc. supernatant (pH solubility assay; pH meas. 7.21, citrate 100 mM/phosphate 200 mM): 0.233
Conc. supernatant (pH solubility assay; pH meas. 7.65, citrate 100 mM/phosphate 200 mM): 0.244
Conc. supernatant (pH solubility assay; pH meas. 8.29, citrate 100 mM/phosphate 200 mM): 0.254
Conc. supernatant (pH solubility assay; pH meas. 8.65, phosphate 200 mM only): 0.247
C0 [4]: 57.2 nM
Vd [4]: 0.16 L/kg
clearance [4]: 3.3 mL/h/kg
half-life ([4]; T1/2, mini-pigs): 33.7 h
half-life ([4]; T1/2 Mean Value, Göttingen mini-pigs, N=3): 33.7 h
SMILES: CC[C@H](C)[C@H](NC(=O)[C@H](Cc1ccccc1)NC(=O)[C@H](CCC(=O)O)NC(=O)[C@H](CCCCN)NC(=O)[C@@H](NC(=O)[C@H](C)NC(=O)[C@H](CCC(=O)O)NC(=O)CNC(=O)[C@H](CCC(=O)O)NC(=O)[C@H](CC(C)C)NC(=O)[C@H](Cc1ccc(O)cc1)NC(=O)[C@H](CO)NC(=O)[C@H](CO)NC(=O)[C@@H](NC(=O)[C@H](CC(=O)O)NC(=O)[C@H](CO)NC(=O)[C@@H](NC(=O)[C@H](Cc1ccccc1)NC(=O)[C@@H](NC(=O)CNC(=O)[C@H](CCC(=O)O)NC(=O)C(C)(C)NC(=O)[C@@H](N)Cc1c[nH]cn1)[C@@H](C)O)[C@@H](C)O)C(C)C)C(C)C)C(=O)N[C@@H](C)C(=O)N[C@@H](Cc1c[nH]c2ccccc12)C(=O)N[C@@H](CC(C)C)C(=O)N[C@H](C(=O)N[C@@H](CCC(=O)O)C(=O)N[C@@H](CCCCN)C(=O)NC(C)(C)C(=O)N[C@@H](CCCCN)C(=O)N[C@@H](CCC(=O)O)C(=O)N[C@@H](Cc1ccccc1)C(=O)N[C@@H](CC(C)C)C(N)=O)C(C)C [Compound 1, [Aib8,Glu23,Val25,Glu34,Lys35,Aib36,Lys37]-GLP-1-(7-37)-peptidyl-Glu-Phe-Leu amide]
oligomer stability by DLS ([1]; 20 mM phosphate pH 7.5 buffer, 0.9 mg/mL or 45.5 mg/mL, 37° C., up to two weeks): remained stable throughout the sample period
4 h Cholesterol Efflux Emax [3]: 100%
